Results taken from PubChem BioAssay AID1996.
Values after ≈ are worked out from the molar mass of the structure shown.

Conditions: buffer; pH 7.4; 200.0 µM

Row | SMILES | solubility kinetic [µg/mL]
1 | CC(C)n1cc(/C(N)=N/O)c(=O)n(Cc2ccccc2)c1=O | > 45.3
2 | CCOc1ncccc1C(=O)OCC(=O)NC(=O)NC(C)C | 44.6 (≈ 144 µM)
3 | COc1cc(OC)nc(/N=C/N(C)C)n1 | > 31.5
4 | CC(=O)Nc1ccc(S(=O)(=O)NCCC(=O)Nc2cc(C)ccn2)cc1 | > 56.5
5 | COc1ccc(CC(=O)NCc2csc(-c3cccs3)n2)cc1OC | 54.6 (≈ 146 µM)
6 | O=C(NCc1ccc2c(c1)CCO2)Nc1ccccc1 | 8.7 (≈ 32.4 µM)
7 | O=C1CCC([N+](=O)[O-])C(c2ccccc2F)N1 (centres undefined) | > 35.7
8 | COc1cc(NC(=S)NC2CC(C)(C)NC(C)(C)C2)cc(OC)c1 | > 52.7
9 | O=C(Cc1ccc(Cl)cc1)Nc1ccc(Br)cn1 | 1.4 (≈ 4.3 µM)
10 | Cc1ccc(S(=O)(=O)/N=C(/Nc2nc(C)cs2)c2ccccc2)cc1 | 8 (≈ 21.5 µM)
11 | CC(C)N(C(=O)Cc1ccccc1[N+](=O)[O-])C(C)C | > 39.6
12 | Cc1ccc(CNC(=O)c2cc(=O)c3cc(C)ccc3o2)cc1 | < 0.7
13 | CC1CCC(NC(=O)C(=O)Nc2ccc3c(c2)OCO3)CC1 (centres undefined) | 0.5 (≈ 1.64 µM)
14 | CC(C)CC(=O)NC(=S)Nc1ccc(N2CCCC2)c(Cl)c1 | < 0.2
15 | Cl.OCCN1CCN(CC/C=C2/c3ccccc3Sc3ccc(C(F)(F)F)cc32)CC1 | 60.1
16 | CN1CCC(NC(=O)c2cccc(Oc3ccccc3)c2)CC1 | > 46.6
17 | O=C(NCc1ccccc1)c1c[nH]c2ccc(F)cc2c1=O | 9.1 (≈ 30.7 µM)
18 | OCCN1CCN(CC(O)C(F)(F)F)CC1 (centres undefined) | > 36.3
19 | Cc1ccc(C(=O)COC(=O)CN2C(=O)C3C4C=CC(C4)C3C2=O)cc1C (centres undefined) | > 55.1
20 | CC(NC(=O)Nc1ccc(Cl)cc1)c1ccccc1 (centres undefined) | 1.9 (≈ 6.92 µM)
21 | CC1CCCC(NCC(=O)Nc2ccc(C(N)=O)cc2)C1C (centres undefined) | > 45.5
22 | CC(C)Oc1ncnc2c1[nH]c1ccccc12 | 12.5 (≈ 55 µM)
23 | CC(=O)Nc1nc(C)c(C(C)C)s1 | > 29.7
24 | Cc1onc(C(=O)Nc2ccccc2C(F)(F)F)c1[N+](=O)[O-] | > 47.3

Row | SMILES | solubility kinetic [µg/mL]
25 | COc1ccc(C(=O)c2cnc[nH]2)cc1 | > 30.3
26 | N#Cc1cnc(Oc2ccc(Cl)cc2)nc1N | 4.3 (≈ 17.4 µM)
27 | CCc1c(C)nc(N2CCN(c3ccc(OC)cc3)CC2)[nH]c1=O | 5.5 (≈ 16.7 µM)
28 | O=C(CCCn1cnc([N+](=O)[O-])n1)Nc1cccc(O)c1 | > 43.7
29 | CCOC(=O)CCNCc1ccc(F)cc1.Cl | > 39.3
30 | Cn1c(N)c(C(=O)Nc2ccccc2F)sc1=S | 4.4 (≈ 15.5 µM)
31 | CC(=O)N(Cc1cc(=O)[nH]c2ccccc12)c1ccc(C)cc1C | > 48.1
32 | CCOC(=O)NC(=O)CSc1ccc2ccccc2n1 | 42.5 (≈ 146 µM)
33 | O=C(OCc1cc(Cl)cc2c1OCOC2)c1cccnc1Cl | 8.5 (≈ 25 µM)
34 | O=C(Nc1ccc(S(=O)(=O)N2CCCC2)cc1)C1CCCCC1 | 13.7 (≈ 40.7 µM)
35 | O=C(Cn1cc([N+](=O)[O-])cn1)N1CCN(c2ccccc2)CC1 | > 47.3
36 | c1ccc(Cn2c(NCc3ccncc3)nc3ccccc32)cc1 | > 47.2
37 | Cc1ccc(NC(=O)N2CCc3ccccc3C2)c(C)c1 | 5.4 (≈ 19.3 µM)
38 | CC(=O)c1c(C)[nH]c(C(=O)COC(=O)c2ccc(C)s2)c1C | 3.5 (≈ 11 µM)
39 | Cc1cccc(C)c1NC(=O)COC(=O)c1ccc([N+](=O)[O-])o1 | 34.3 (≈ 108 µM)
40 | C=CCOc1ccc(C(=O)n2cc(C(=O)OC)c3ccccc32)cc1 | < 0.7
41 | Cc1ccc(NC2CC(=O)N(c3cccc([N+](=O)[O-])c3)C2=O)cc1 (centres undefined) | 39 (≈ 120 µM)
42 | O=S(=O)(Nc1ccc2c(c1)OCCO2)c1cccc(F)c1 | > 46.4
43 | CC(C)(C)S(=O)(=O)c1cnc(-c2cnccn2)nc1N | > 44
44 | CC(C)(C)C1CCC(N2CCN(c3ccccc3)CC2)CC1 (centres undefined) | 0.5 (≈ 1.66 µM)
45 | CC(=O)Nc1ccc(-c2cc(C(=O)O)c3ccc(C)cc3n2)cc1 | > 48.1
46 | CCC1=C([N+](=O)[O-])C(c2ccc3c(c2)OCO3)NC(=O)N1 (centres undefined) | > 43.7
47 | COc1ccc(CCC(=O)NC(C)c2ccccc2)cc1OC (centres undefined) | > 47
48 | CCN(CC)CCN(C(=O)/C=C/c1cccs1)c1nc2ccc(F)cc2s1.Cl | < 0.3

Row | SMILES | solubility kinetic [µg/mL]
49 | COc1ccc(C2C3=C(CCCC3=O)NC3=C2C(=O)c2ccccc23)cc1 (centres undefined) | < 0.8
50 | N#C/C(=C/c1cccc([N+](=O)[O-])c1)C(=O)Nc1ccccc1O | 10.7 (≈ 34.6 µM)
51 | C/C(=N/OC(=O)c1ccc(Br)cc1)c1ccc(C)cc1 | < 0.7
52 | COc1ccc(CSc2nc3ccccc3c(=O)[nH]2)cc1F | 1.3 (≈ 4.11 µM)
53 | CCOc1ccc(NC(=O)c2[nH]c(C)c(C(C)=O)c2C)cc1 | 3.4 (≈ 11.3 µM)
54 | Cc1ccnn1-c1ccc(C(=O)NCc2ccccc2CN2CCOCC2)cc1 | > 58.6
55 | Cc1ccc(CN2CC(C(=O)N(C)CC(=O)Nc3cccc(F)c3)CC2=O)cc1 (centres undefined) | 46.2 (≈ 116 µM)
56 | N#Cc1c(-c2ccccc2)ccnc1N1CCOCC1 | 17.6 (≈ 66.3 µM)
57 | COc1ccc(/C(N)=N/OC(=O)c2ccc(OC)c([N+](=O)[O-])c2)cc1OC | 0.6 (≈ 1.6 µM)
58 | CC(=O)c1ccc(NC2=NCCCS2)cc1 | > 35.1
59 | CCCCc1ccc(S(=O)(=O)NC2CCS(=O)(=O)C2)cc1 (centres undefined) | 47.9 (≈ 145 µM)
60 | Cc1cc(N2CCCC2)c(F)cc1/C=C\[N+](=O)[O-] | 0.4 (≈ 1.6 µM)
61 | CNCc1sccc1C.Cl | > 26.7
62 | O=C(c1ccc(Cl)cc1)N1CCCCC(Cl)C1=O (centres undefined) | 6.9 (≈ 24.1 µM)
63 | COc1ccc(NC(=O)Cn2cc(C#N)c3ccccc32)cc1 | < 0.2
64 | COc1ccc(C2SCC(=O)N2Cc2ccccc2)cc1 (centres undefined) | 44.6 (≈ 149 µM)
65 | COC(=O)C(=C/C=C/c1cccnc1)C(=O)OC | > 37.1
66 | Cc1nnc(SCC(=O)NC2CCCCCC2)n1C(C)C | > 46.6
67 | CC(C)(C)C1CCC(OC(=O)CN2CCCCC2)CC1 (centres undefined) | 2.4 (≈ 8.53 µM)
68 | CN(C(=S)NCCN1CCOCC1)C(c1ccccc1)c1ccccc1 | 42.7 (≈ 116 µM)
69 | Cc1cccc(-c2noc(CCCC(=O)NC3CCCC3)n2)c1 | 42.2 (≈ 135 µM)
70 | N#Cc1c(N)n(-c2ccc(O)cc2)c2nc3ccccc3nc12 | 1.2 (≈ 3.98 µM)
71 | Cn1c(SCc2ccc(F)cc2)nnc1-c1ccncc1 | > 45.1
72 | CCN(CC)CCNC(=O)c1ccc(NC(=O)Cc2ccsc2)cc1 | 49.4 (≈ 137 µM)

Row | SMILES | solubility kinetic [µg/mL]
73 | C[C@@H]1C2CC(C/C2=N\NC(=O)c2ccncc2)C1(C)C (some centres undefined) | > 40.7
74 | O=C(CSc1ccccn1)Nc1ccc(Cl)c([N+](=O)[O-])c1 | 1.7 (≈ 5.25 µM)
75 | Cc1ccc(OCCCC(=O)ON=C(N)c2ccccc2C)cc1 | 19.9 (≈ 61 µM)
76 | N#Cc1cccc(NS(=O)(=O)c2ccccc2Cl)c1 | > 43.9
77 | CC(=O)Nc1cc2c(cc1[N+](=O)[O-])OCCO2 | > 35.7
78 | CC1(c2ccccc2)NC(=O)N(CC(=O)Nc2ccc3c(c2)CCC3)C1=O (centres undefined) | 3.8 (≈ 10.5 µM)
79 | Cc1csc(NC(=O)C2CCCCC2)n1 | 19.9 (≈ 88.7 µM)
80 | O=C(Nc1ccc(O)cc1)/C(=C/c1ccco1)NC(=O)c1ccccc1 | > 52.3
81 | CNS(=O)(=O)c1cccc(C(=O)NCC(C)(C)N2CCCCC2)c1 | 48.8 (≈ 138 µM)
82 | O=S(=O)(NC(=S)NC1CCCCC1)c1ccc(Cl)cc1 | > 49.9
83 | Clc1ccc(OCc2noc(-c3ccsc3)n2)c(Cl)c1 | < 0.4
84 | Cc1ccccc1C(=O)NC(=S)N(Cc1ccccc1)c1ccccn1 | > 54.2
85 | O=C(Cn1ncc(Cl)c(Cl)c1=O)NC1CCCCC1 | > 45.6
86 | CC(=O)N1NC(=Nc2ccccc2)SC1(C)C | > 37.4
87 | CC(O)CNCCCOc1cccc(C(F)(F)F)c1.O=C(O)C(=O)O (centres undefined) | 51.7
88 | CC(C)OC(=O)CSc1nc(C(C)C)nc2ccccc12 | 2.1 (≈ 6.9 µM)
89 | CCN(C(=O)COc1ncnc2ccccc12)C1CCCCC1 | > 47
90 | O=C(N[C@@H]1C[C@H]2CC[C@@H]1C2)c1ccco1 | 29.8 (≈ 145 µM)
91 | O=C(NCCC(=O)N1CCCCC1)c1ccccc1Cl | > 44.2
92 | CN(Cc1ccc(F)cc1Cl)S(=O)(=O)c1cccs1 | 6.8 (≈ 21.3 µM)
93 | Cc1c(CNCCc2ccccc2)c(C(=O)O)c(C)n1-c1ccccc1 | > 52.3
94 | COc1ccc(NC(C)=O)cc1CNC(=O)CN1CCOCC1 | > 48.2
95 | CCOc1ccccc1NC(=O)NCc1ccco1 | 9.8 (≈ 37.6 µM)
96 | Cn1ccnc1SCC(=O)c1cccc(C(F)(F)F)c1 | > 45

Row | SMILES | solubility kinetic [µg/mL]
97 | Cc1c(NC(=O)c2ccc3nsnc3c2)cccc1[N+](=O)[O-] | 2.3 (≈ 7.32 µM)
98 | COc1ccc(C(=O)OCc2cc(=O)n3ccsc3n2)cc1F | 4 (≈ 12 µM)
99 | CC(=Nc1ccccc1N)c1c(O)n(C)c(=O)[nH]c1=O | > 41.1
100 | CC1CC(=O)Nc2ccccc2N1C(=O)CSc1ccc2ccccc2n1 (centres undefined) | > 56.6
101 | Cc1ccc(CNC(=O)C2CC(=O)N(C3CCCC3)C2)cc1 (centres undefined) | 41.2 (≈ 137 µM)
102 | C=CCn1c(C)nc2ccccc2c1=O | > 30
103 | Cn1ccc(/C=N/N=C2/NC(=O)CS2)n1 | > 33.5
104 | CCOc1ccc(CNc2ncc(-c3ccccc3)n2C)cc1 | 26 (≈ 84.6 µM)
105 | CC(=O)Nc1ccc(/C=C(\C#N)S(=O)(=O)c2ccc(C)cc2)cc1 | 5.2 (≈ 15.3 µM)
106 | O=C(CSc1ccccc1F)NC(=O)c1ccc(Cl)cc1 | 8.5 (≈ 26.3 µM)
107 | CCN(CCO)c1nc(N2CCCCC2)c2cnn(C)c2n1 | > 45.7
108 | O=C(COc1ccc([N+](=O)[O-])cc1)Nc1ccccc1C(=O)NC1CC1 | 1.3 (≈ 3.66 µM)
109 | O=C(Nc1ccccc1)/C(=C\c1ccc(F)cc1)NC(=O)c1ccco1 | 2 (≈ 5.71 µM)
110 | O=C(COC(=O)c1cc2ccccc2cc1O)NC1CCCCC1 | 5.9 (≈ 18 µM)
111 | Cc1cc(C)cc(N(CC(=O)N2CCCC2)S(C)(=O)=O)c1 | > 46.6
112 | O=C(CCCN1C(=O)c2ccccc2C1=O)Nc1ccccc1 | > 46.3
113 | CCn1c(NC(=O)C(C)C)c(-c2cccs2)c(=O)c2ccccc21 | > 51.1
114 | CC(C)c1ccc(NC(=O)CCc2ccccc2)cc1 | 3.9 (≈ 14.6 µM)
115 | O=C(COC(=O)c1cccs1)Nc1cccc(Cl)c1 | 7.6 (≈ 25.7 µM)
116 | O=C(c1cc(=O)[nH]c2ccccc12)N1CCc2ccccc2C1 | 42.9 (≈ 141 µM)
117 | CC(=O)N(CCC(c1ccco1)C(C)C)Cc1ccc(OC(C)C)cc1 (centres undefined) | 19.5 (≈ 54.5 µM)
118 | CCOc1ccc2nc(NC(=O)CN3CCOCC3)sc2c1 | > 48.2
119 | FC(F)Oc1ccc(N=C2SCC3CCCCN23)cc1 (centres undefined) | 15.3 (≈ 51.3 µM)
